# Results: US20250270170A1, “2,3-DIMETHOXY-5-METHYL-1,4-BENZOQUINONE ALKYL ALCOHOL DERIVATIVE AND USE THEREOF” (BEIJING ANJIANXI BIO-MEDICAL TECHNOLOGY CO., LTD., priority 2021, published 2025)
# Marks after values point to notes of the source that are not given here.
# What was measured:
# [1] = Example 3: body weight of NCI-N87 tumor-bearing nude mice; type: in vivo, BALB/c nude mice; conditions: for Mean animal body weight / body weight loss rate: DDP 4/4/5/5 mg/kg i.p. QW×4
# Experimental: The NCI-N87 cells in the logarithmic growth phase were collected, counted and resuspended in a serum-free RPMI-1640 medium, and the cell concentration was adjusted to 5×10^7 cells/mL. The cells were pipetted with a pipette to disperse them evenly, and the cells were put into a 50-mL centrifuge tube, which was placed in an ice box. A 1-mL syringe was used to draw the cell suspension, which was injected subcutaneously into the axilla of the front right limb of a nude mouse. Each animal was inoculated with 100 μL (5×10^6 cells/mouse) to establish an NCI-N87 transplanted tumor model in nude mice. After the inoculation, the animal status and tumor growth were regularly observed, and the tumor diameter was measured using an electronic vernier caliper. The data were input into an Excel spreadsheet to calculate the tumor volume. When the tumor volume reached 100 to 300 mm^3, 72 animals in good health and with similar tumor volumes were selected and divided into 9 groups (n=8) using randomized block method. The day of grouping was regarded as the first day of the assay (D1). After the start of the assay, the tumor diameter was measured twice a week, the tumor volume was calculated, and the animal body weight was also weighed and recorded. [table] The calculation formula of animal weight loss rate is: wherein BWt represents the animal body weight measured each time during the administration period; BWinitial represents the animal body weight when being grouped for administration. The assay data were calculated and processed statistically using Microsoft Office Excel 2007 software. Unless otherwise specified, the data were expressed as mean±standard error (Mean±SE), and t-test was used for comparison between two groups.
# [2] = system: human gastric cancer NCI-N87 transplanted tumor; assay: Example 7: tumor growth in NCI-N87 transplanted tumor model, alone and combined with DDP; type: in vivo, nude mice; conditions: DDP 4/2/1/4 mg/kg IP
# [3] = Example 9: serum urea nitrogen (BUN) at the end of the assay; type: in vivo, nude mice; conditions: serum, end of assay, A549 model
# Experimental: On the last day of the assay, CO2 inhalation anesthesia was used on the animals 1 hour after the administration (R01). Blood was collected through the heart, and a part of the whole blood was added with EDTA-K2 for anticoagulation. The plasma was separated by centrifugation at 4° C. and 1500 g for 10 minutes. The plasma was collected, and stored in a −40° C. to −20° C. freezer (if necessary, it can be used for the determination of the plasma drug concentration). No anticoagulant was added to the other part of the whole blood, and the serum was separated by centrifugation after the blood coagulated, which was used for the detection of blood urea nitrogen. After the blood collection, the tumor tissue was collected, weighed and photographed. Then, the tumor was divided into two parts, quickly cryopreserved by liquid nitrogen, and transferred to a −90° C. to −60° C. freezer for storage. Bilateral kidneys were collected and fixed in 10% formalin.
# [4] = system: human colorectal cancer HT29 transplanted tumor; assay: Example 10: tumor growth in HT-29 transplanted tumor model; type: in vivo, nude mice; conditions: HT-29 model, DDP 5 mg/kg i.p. QW × 3, R01 18 mg/kg i.g. BID × 28
# Experimental: The human colorectal cancer cell lines HT-29 were obtained from the Cell Bank of the Type Culture Collection Committee of Chinese Academy of Sciences (CAS, cryopreserved in liquid nitrogen in this assay).
# HT-29 cells were routinely cultured in a McCoy […] containing 10% fetal bovine serum under culture conditions of 37° C. and 5% CO2. The cells were digested with 0.25% trypsin, and passaged according to the cell growth conditions with a passaging ratio of 1:3 to 1:4.
# On D1 of the assay, the HT-29 cells in the logarithmic growth phase were collected, counted and resuspended in serum-free McCoy, and the cell concentration was adjusted to 4×10^7 cells/mL. The cells were pipetted with a pipette to disperse them evenly, and the cells were put into a 50-mL centrifuge tube, which was placed in an ice box. A 1-mL syringe was used to draw the cell suspension, which was injected subcutaneously into the axilla of the front right limb of a nude mouse. Each animal was inoculated with 100 μL (4×10^6 cells/mouse) to establish a HT-29 transplanted tumor model in nude mice. After the inoculation, the animal status and tumor growth were regularly observed. On D12, the tumor diameter was measured using an electronic vernier caliper. The data were input into an Excel spreadsheet to calculate the tumor volume. Tumor-bearing mice in good health and with similar tumor volumes (103 to 179 mm^3) were selected and divided into groups using randomized block method. After the start of the assay, the tumor diameter was measured regularly, the tumor volume was calculated, and the animal body weight was also weighed and recorded.
smiles,measurement,setting,value
"N.N.[Cl][Pt][Cl] [DDP, cisplatin]",Mean animal body weight,[1]; D13,18.5 ± 0.4 g
same,Mean animal body weight,[1]; D16,17.3 ± 0.4 g
same,body weight loss rate,[1]; D16,(6.2%)
same,Mean animal body weight,[1]; D20,17.6 ± 0.4 g
same,body weight loss rate,[1]; D20,(4.8%)
same,Mean animal body weight,[1]; D23,17.5 ± 0.4 g
same,body weight loss rate,[1]; D23,(5.1%)
same,Mean animal body weight,[1]; D27,18.3 ± 0.6 g
same,body weight loss rate,[1]; D27,(1.1%)
same,Mean animal body weight,[1]; D30,17.6 ± 0.4 g
same,body weight loss rate,[1]; D30,(4.7%)
same,Mean animal body weight,[1]; D34,17.7 ± 0.4 g
same,body weight loss rate,[1]; D34,(4.3%)
same,Mean animal body weight,[1]; D37,17.2 ± 0.4 g
same,body weight loss rate,[1]; D37,(6.8%)
same,Mean animal body weight,[1]; D44,16.8 ± 0.4 g
same,body weight loss rate,[1]; D44,(8.9%)
same,effect on body weight compared with blank control group,"[1]; NCI-N87 tumor-bearing nude mice, summary of Table 6",decreased significantly
same,Mean tumor volume,[2]; D12,155 ± 6 mm^3
same,Mean tumor volume,[2]; D16,241 ± 6 mm^3
same,tumor growth inhibition rate (TGI),[2]; D16,15%
same,Mean tumor volume,[2]; D19,294 ± 6* mm^3
same,tumor growth inhibition rate (TGI),[2]; D19,18%
same,Mean tumor volume,[2]; D23,341 ± 13** mm^3
same,tumor growth inhibition rate (TGI),[2]; D23,28%
same,Mean tumor volume,[2]; D26,419 ± 22** mm^3
same,tumor growth inhibition rate (TGI),[2]; D26,34%
same,Mean tumor volume,[2]; D30,543 ± 32** mm^3
same,tumor growth inhibition rate (TGI),[2]; D30,40%
same,Mean tumor volume,[2]; D33,642 ± 35** mm^3
same,tumor growth inhibition rate (TGI),[2]; D33,39%
same,Mean tumor volume,[2]; D37,810 ± 61* mm^3
same,tumor growth inhibition rate (TGI),[2]; D37,36%
same,Mean tumor volume,[2]; D40,911 ± 80* mm^3
same,tumor growth inhibition rate (TGI),[2]; D40,36%
same,Mean tumor volume,[2]; D44,1035 ± 95* mm^3
same,tumor growth inhibition rate (TGI),[2]; D44,35%
same,BUN (mmol/L) Mean ± SE,"[3]; group B, DDP 4 mg/kg i.p. QW × 4",21.17 ± 1.43 mmol/L
same,BUN (mmol/L) Mean ± SE,"[3]; group C, DDP 5/7/7/7 mg/kg i.p. QW × 4",28.56 ± 1.79 mmol/L
same,Mean tumor volume ± SE,[4]; D 12 (grouping),131 ± 8 mm^3
same,Mean tumor volume ± SE,[4]; D 15,178 ± 10 mm^3
same,tumor growth inhibition rate,[4]; D 15,(37%)
same,Mean tumor volume ± SE,[4]; D 19,263 ± 11** mm^3
same,tumor growth inhibition rate,[4]; D 19,(48%)
same,Mean tumor volume ± SE,[4]; D 22,383 ± 25** mm^3
same,tumor growth inhibition rate,[4]; D 22,(36%)
same,Mean tumor volume ± SE,[4]; D 26,484 ± 28** mm^3
same,tumor growth inhibition rate,[4]; D 26,(39%)
same,Mean tumor volume ± SE,[4]; D 29,582 ± 25** mm^3
same,tumor growth inhibition rate,[4]; D 29,(44%)
same,Mean tumor volume ± SE,[4]; D 33,693 ± 34** mm^3
same,tumor growth inhibition rate,[4]; D 33,(48%)
same,Mean tumor volume ± SE,[4]; D 36,777 ± 38** mm^3
same,tumor growth inhibition rate,[4]; D 36,(47%)
same,Mean tumor volume ± SE,[4]; D 40,896 ± 56** mm^3
same,tumor growth inhibition rate,[4]; D 40,(45%)
